This is an account of results in ChEMBL document CHEMBL3217431, “Synthesis, in silico screening and bioevaluation of dispiro-cycloalkanones as antitubercular and mycobacterial NAD+-dependent DNA ligase inhibitors” (Medchemcomm, 2011).

In brackets after ≈: the same amount, converted by molar mass. Activity calls are given as the source filed them. No cut-off for these calls is given here.

Assay [1] relates to Mycobacterium tuberculosis. Nature of the assay: Antitubercular activity against Mycobacterium tuberculosis H37Rv assessed as growth inhibition after 30 days by agar microdilution method. In kind it is functional.
A further assay deals with T1, DNA ligase (Enterobacteria phage T4, UniProt P00970).
T1 sequence (P00970 whole entry): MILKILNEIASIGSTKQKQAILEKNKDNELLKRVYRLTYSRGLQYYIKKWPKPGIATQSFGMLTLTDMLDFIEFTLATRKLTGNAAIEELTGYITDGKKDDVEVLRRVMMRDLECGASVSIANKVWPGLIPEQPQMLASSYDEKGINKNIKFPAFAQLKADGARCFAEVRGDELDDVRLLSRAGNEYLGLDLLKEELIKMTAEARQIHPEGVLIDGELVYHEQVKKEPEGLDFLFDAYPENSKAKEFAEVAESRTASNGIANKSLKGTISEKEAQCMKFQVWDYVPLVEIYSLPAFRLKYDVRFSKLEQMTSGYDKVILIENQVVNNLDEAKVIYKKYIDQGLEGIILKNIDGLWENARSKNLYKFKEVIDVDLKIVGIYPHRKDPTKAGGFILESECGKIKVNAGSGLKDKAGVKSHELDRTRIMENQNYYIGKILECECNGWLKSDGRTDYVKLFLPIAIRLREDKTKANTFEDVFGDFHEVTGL
In words: Inhibition of nick joining activity of ATP-dependent bacteriophage T4 DNA ligase using [gamma32P]ATP-labeled nicked 40 bp DNA as substrate. On the set-up: species or system Tequatrovirus T4.

In the next assay the target is DNA ligase 1 (Homo sapiens, UniProt P18858). Nature of the assay: Inhibition of nick joining activity of human DNA ligase 1 using [gamma32P]ATP-labeled nicked 40 bp DNA as substrate.
The nature of assay [2]: Inhibition of nick joining activity of Mycobacterium tuberculosis full length NAD+-dependent DNA ligase using [gamma32P]ATP-labeled nicked 40 bp DNA as substrate.
Assay [3] has as its system Escherichia coli. Nature of the assay: In vivo antibacterial activity against Escherichia coli GR501 harboring lig251 temperature-sensitive mutant gene transformed with control plasmid pTrc99A assessed as growth inhibition after 20 hrs by microdilution assay. Format: functional. Conditions: GR501, 20 h. A general note: Dilution methods test growth across graded concentrations, often in twofold steps.

For assay [4], the system named is Salmonella typhimurium. Nature of the assay: In vivo antibacterial activity against wild type Salmonella typhimurium LT2 assessed as growth inhibition after 20 hrs by microdilution assay. The following applies: Salmonella enterica, LT2, 20 h. In kind it is functional, Salmonella enterica subsp. enterica serovar Typhimurium.
A short description of assay [5]: Ratio of IC50 for ATP-dependent bacteriophage T4 DNA ligase to IC50 for Mycobacterium tuberculosis full length NAD+-dependent DNA ligase.
A short description of assay [6]: Binding affinity to plasmid DNA (unknown origin) by gel electrophoresis mobility shift assay.
Assay [7] in a line: Ratio of IC50 for human DNA ligase 1 to IC50 for Mycobacterium tuberculosis full length NAD+-dependent DNA ligase.
Assay [8] has as its system Salmonella typhimurium. Nature of the assay: In vivo antibacterial activity against DNA ligase deficient Salmonella typhimurium variant TT15151 expressing […] T4 DNA ligase gene assessed as growth inhibition after 20 hrs by microdilution assay. In kind it is functional, Salmonella enterica subsp. enterica serovar Typhimurium. Conditions: Salmonella enterica, TT15151, 20 h.

The next assay relates to Calf thymus DNA. Nature of the assay: Binding affinity to calf thymus DNA up to 250 uM by ethidium bromide displacement assay. Format: nucleic-acid assay. The following applies: Bos taurus.
In assay [9] the test system is Escherichia coli. In words: In vivo antibacterial activity against Escherichia coli GR501 harboring temperature-sensitive lig251 mutant gene transformed with plasmid encoding T4 DNA ligase assessed as growth inhibition after 20 hrs by microdilution assay. Format: functional. Conditions: GR501, 20 h.
Assay [10] in a line: Competitive inhibition of nick joining activity of Mycobacterium tuberculosis full length NAD+-dependent DNA ligase using [gamma32P]ATP-labeled nicked 40 bp DNA as substrate by double reciprocal plot assay in presence of rising concentrations of NAD+.

Chain of DNA ligase 1 (P18858 whole entry): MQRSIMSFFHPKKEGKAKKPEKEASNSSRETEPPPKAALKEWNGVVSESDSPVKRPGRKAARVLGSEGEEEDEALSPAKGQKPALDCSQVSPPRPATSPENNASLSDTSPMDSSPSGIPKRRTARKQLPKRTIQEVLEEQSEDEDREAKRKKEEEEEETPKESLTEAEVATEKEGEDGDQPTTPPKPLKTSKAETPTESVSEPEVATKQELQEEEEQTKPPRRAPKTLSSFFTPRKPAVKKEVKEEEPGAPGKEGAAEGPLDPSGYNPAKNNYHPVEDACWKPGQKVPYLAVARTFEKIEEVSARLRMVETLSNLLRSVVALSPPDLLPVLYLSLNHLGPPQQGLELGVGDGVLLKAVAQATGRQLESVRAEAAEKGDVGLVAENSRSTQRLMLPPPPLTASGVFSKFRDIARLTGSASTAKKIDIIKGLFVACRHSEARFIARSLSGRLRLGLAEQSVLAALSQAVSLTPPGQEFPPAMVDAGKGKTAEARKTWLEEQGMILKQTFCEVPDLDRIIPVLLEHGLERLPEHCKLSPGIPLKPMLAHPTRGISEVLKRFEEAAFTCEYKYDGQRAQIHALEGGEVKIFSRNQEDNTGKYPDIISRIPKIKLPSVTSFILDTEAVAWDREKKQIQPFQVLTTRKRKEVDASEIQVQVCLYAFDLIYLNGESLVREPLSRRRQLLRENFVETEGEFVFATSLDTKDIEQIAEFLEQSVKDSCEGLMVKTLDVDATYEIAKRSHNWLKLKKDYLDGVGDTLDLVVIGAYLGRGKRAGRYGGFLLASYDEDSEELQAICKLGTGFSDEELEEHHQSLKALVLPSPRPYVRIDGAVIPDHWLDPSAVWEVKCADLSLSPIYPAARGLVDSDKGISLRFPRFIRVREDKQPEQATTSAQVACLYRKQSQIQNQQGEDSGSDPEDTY

For the compound `O=C1C2(CCCCC13CC3c1ccc(Cl)cc1)CC2c1ccc(Cl)cc1` (centres undefined), the MIC90 – broadly, an inhibitory concentration at the 90% level, which refers to growth in some studies and to a panel of isolates in others – in assay [1] is above 30 µM.

With `COc1ccc(C2CC23CCCC2(CC2c2ccc(OC)cc2)C3=O)cc1` (centres undefined), the MIC90 in [1] was above 30 µM.

Regarding `COc1ccc(C2CC23CCC2(CC2c2ccc(OC)c(OC)c2)C3=O)cc1OC` (centres undefined), the MIC90 in assay [1] was above 30 µM.

Take `O=C1C2(CCC13CC3c1ccc(Br)cc1)CC2c1ccc(Br)cc1` (centres undefined): the MIC90 in assay [1] turned out to be 28 µM (≈ 12.5 µg/mL).

In the case of `O=C1C2(CCC13CC3c1ccc(F)cc1)CC2c1ccc(F)cc1` (centres undefined), the MIC90 in assay [1] was above 30 µM.

For the compound `COc1ccc(C2CC23CCC2(CC2c2ccc(OC)cc2)C3=O)cc1` (centres undefined), the MIC90 in [1] was above 30 µM.

On to `O=C1C2(CCCC13CC3c1ccc(Cl)cc1)CC2c1ccc(Cl)cc1` (centres undefined), for which the results for the IC50 (at DNA ligase; against DNA ligase 1; in [2]) were 20.2 µM, 18.5 µM and 12 µM, respectively. Moreover, the MIC90 in assay [1] turned out to be 16.8 µM (≈ 6.24 µg/mL).

In the case of `NNC(=O)c1ccncc1` [ISONIAZID], the MIC90 in assay [1] was determined as 4.7 µM (≈ 0.645 µg/mL).

As for `COc1cc(C2CC23CCCC2(CC2c2cc(OC)c(OC)c(OC)c2)C3=O)cc(OC)c1OC` (centres undefined), the MIC90 in assay [1] was 25.9 µM (≈ 12.5 µg/mL).

On to `O=C1C2(CCCC13CC3c1ccc(F)cc1)CC2c1ccc(F)cc1` (centres undefined), for which the values for the IC50 (against DNA ligase; against DNA ligase 1; in assay [2]) were 33.4 µM, 45.4 µM and 8.6 µM, respectively. Moreover, the MIC (in general, the lowest concentration that inhibits growth of the organism) with Escherichia coli [3] was 5.9 µM (≈ 2 µg/mL); in the assay on Salmonella typhimurium [4], 29.5 µM (≈ 9.98 µg/mL); in the assay on Salmonella typhimurium [8], 148 µM (≈ 50 µg/mL); with Escherichia coli [9] it was 178 µM (≈ 60.1 µg/mL). The Ratio IC50 in [5] was 4; in [7], 5. Also, the result (in assay [6]; in the assay with Calf thymus DNA) was inactive. For the same compound, in assay [1], the MIC90 is above 30 µM.

In the case of `COc1ccc(C2CC23CCCCC2(CC2c2ccc(OC)cc2)C3=O)cc1` (centres undefined), in [1], the MIC90 was above 30 µM.

On to `O=C1C2(CCCC13CC3c1ccc(Br)cc1)CC2c1ccc(Br)cc1` (centres undefined), for which the IC50 (usually the concentration at which inhibition is half-maximal) turned out to be 70.2 µM at DNA ligase, 58.6 µM on DNA ligase 1 and 7.3 µM in [2]. The MIC in the assay on Escherichia coli [3] was 8.6 µM (≈ 3.96 µg/mL); in the assay on Salmonella typhimurium [4] it was 43.4 µM (≈ 20 µg/mL); in the assay on Salmonella typhimurium [8], 76 µM (≈ 35 µg/mL); in the assay with Escherichia coli [9] it was 65.2 µM (≈ 30 µg/mL). Besides, the Ratio IC50 in assay [5] and in assay [7] was 8 each time. The outcome (in assay [6]; in the assay on Calf thymus DNA) was inactive. In addition, the Ki (in general, a measure of affinity in units of concentration, obtained from inhibition or displacement) in assay [10] worked out at 5.9 µM. Besides, the MIC90 in [1] is 13.5 µM (≈ 6.21 µg/mL).

`O=C1C2(CCC13CC3c1ccc(OCc3ccccc3)cc1)CC2c1ccc(OCc2ccccc2)cc1` (centres undefined): in assay [1], the MIC90 stood at 25 µM (≈ 12.5 µg/mL).

For the compound `CC[C@@H](CO)NCCN[C@@H](CC)CO` [ETHAMBUTOL], in assay [1], the MIC90 was 15.9 µM (≈ 3.25 µg/mL).

Take `O=C1C2(CCCC13CC3c1ccc(OCc3ccccc3)cc1)CC2c1ccc(OCc2ccccc2)cc1` (centres undefined): in assay [1], the MIC90 was 24.3 µM (≈ 12.5 µg/mL).

`O=C(C1CC1c1ccc(OCc2ccccc2)cc1)C1CC1c1ccc(OCc2ccccc2)cc1` (centres undefined): the MIC90 in [1] is 26.3 µM (≈ 12.5 µg/mL).

Regarding `COc1ccc(C2CC23CCCC2(CC2c2ccc(OC)c(OC)c2)C3=O)cc1OC` (centres undefined), the MIC90 in [1] was 29.6 µM (≈ 12.5 µg/mL).

For the compound `COc1ccc(C2CC23CCCCC2(CC2c2ccc(OC)c(OC)c2)C3=O)cc1OC` (centres undefined), the MIC90 in assay [1] worked out at 28.6 µM (≈ 12.5 µg/mL).

Regarding `COc1cc(C2CC23CCCCC2(CC2c2cc(OC)c(OC)c(OC)c2)C3=O)cc(OC)c1OC` (centres undefined), in assay [1], the MIC90 was 25.2 µM (≈ 12.5 µg/mL).

For `O=C1C2(CCCC13CC3c1ccccc1)CC2c1ccccc1` (centres undefined), the IC50 amounted to 210 µM on DNA ligase, 130 µM against DNA ligase 1 and 180 µM in [2]. Further, the MIC90 in assay [1] is above 30 µM.
